The values that follow are results of earlier work, collected in patent publication US6903092B2, “Naphthamide neurokinin antagonists for use as medicaments” (priority 2000, dated 2005).

Experiment in data set [1]: not given
This is another data set of the same source.

The subject of a further data set is Marmoset. The following applies: Walsh et al., Psychopharmacology 121: 186-191, 1995.
Experiment in data set [2]: not given
This is another data set of the same source.

For data set [3] the following is noted: Vassout et al, Neuropeptides 26/S1: 38, 1994; only at 30 mg/kg bid.
The mark [4] stands for this setting: Teixeira et al., Eur J Pharmacol 311(1): 7-14, 1996.
Where [5] appears, read: Stratton et al., Eur. J. Pharmacol. 250: R11-12, 1993.
Where [6] appears, read: Walsh et al., Psychopharmacology 121: 186-191, 1995.
The mark [7] stands for this setting: Vassout et al, Neuropeptides 26/S1: 38, 1994.

Where two headings read alike, the source gives them in different places. Square brackets hold non-standard residues; d marks the D form. Peptide text beside a SMILES is read from it. * marks the point of attachment. Cyclohexanecarbonyl = O=C(C1CCCCC1)*

On to `CC(=O)NC1(c2ccccc2)CCN(CC[C@H](CN(C)C(=O)c2ccccc2)c2ccc(Cl)c(Cl)c2)CC1` [SR48968], for which, under setting [4], the “Outcome, Elevated plus-maze” value was “anxiolytic”. Besides, the “Outcome, Light-dark box” value in data set [1] (setting [5]) and in data set [1] (setting [6]) was “anxiolytic” in each case. Further, the “Outcome, Marmoset human intruder” value with Marmoset is on record as “anxiolytic”.
Take `CN(Cc1ccccc1)C(=O)[C@H](Cc1ccc2ccccc2c1)NC(=O)[C@@H]1C[C@@H](O)CN1C(=O)c1cn(C)c2ccccc12` [FK888]: the “Outcome, Elevated plus-maze” value under setting [4] is “anxiolytic”.
Take `COC1(C[S@@+]([O-])c2ccccc2)CCN(CCc2c[nH]c3ccc(F)cc23)CC1` [GR159897]: in data set [1] (setting [6]), the “Outcome, Light-dark box” value is on record as “anxiolytic”. In addition, the “Outcome, Marmoset human intruder” value in the data set on Marmoset is listed as “anxiolytic”.
Consider `C[C@H](NC(=O)CNC(=O)C1CCCCC1)C(=O)N[C@H](Cc1c[nH]c2ccccc12)C(=O)N[C@@H](Cc1ccccc1)C(=O)N(C)C` [GR100679] (Cyclohexanecarbonyl-GA[dW]F-NMe2), for which, in data set [1] (setting [5]), the “Outcome, Light-dark box” value was “anxiolytic”.
Take `Cc1cc(C)cc(C(=O)N2CC[C@H](NCc3ccnc4ccccc34)C[C@H]2Cc2ccccc2)c1` [CGP 49823]: the “Outcome, Elevated plus-maze” value under setting [7] was “inactive”. Further, in data set [2] (File, Pharm Bio B 58(3): 747-752, 1997), the “Outcome, Social interaction” value was “anxiolytic”. The “Outcome, Social interaction test” value in data set [2] (setting [7]) is recorded as “anxiolytic”. The “Outcome, Forced swim test (depression model)” value in data set [3] is recorded as “antidepressant”.
